Format in all cases: in vivo
One assay deals with Chilo suppressalis. Description: Example B1: activity against Chilo suppressalis (striped rice stemborer), artificial diet. The note with it: for percent control (mortality, anti-feedant effect or growth inhibition) at 200 ppm: 144 h, L2 larvae, 6 days after infestation, read-out: control (at least one of mortality, anti-feedant effect, growth inhibition). An outline of the steps:
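Scoring covers mortality, anti-feedant effect and growth inhibition at 6 days post-infestation, relative to untreated diet, with activity defined as at least one category above untreated. Test solutions were aqueous, made from 10'000 ppm DMSO stocks, and applied to artificial diet before drying and infestation with L2 larvae.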

Assay [1] deals with Diabrotica balteata. Nature of the assay: Example B2: activity against Diabrotica balteata (corn root worm), maize sprouts. The settings on record: 96 h, L2 larvae, 4 days after infestation, read-out: effect in at least one of the two categories (mortality or growth inhibition). The method, boiled down:
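Maize sprouts on agar were sprayed with aqueous test solutions made from 10′000 ppm DMSO stocks, dried, then infested with 6–10 L2 larvae per well. Mortality and growth inhibition were scored against untreated samples 4 days after infestation, at an application rate of 200 ppm.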

A further assay has as its system Euschistus heros. Nature of the assay: Example B3: activity against Euschistus heros (neotropical brown stink bug), soybean leaves. The note with it: for percent effect (mortality or growth inhibition) at 200 ppm: 120 h, N2 nymphs, 5 days after infestation, read-out: effect in at least one of the two categories (mortality or growth inhibition). The method, boiled down: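 Soybean leaves on agar sprayed with aqueous dilutions of DMSO stock (10′000 ppm), dried, then infested with N2 nymphs. Mortality and growth inhibition scored against untreated samples 5 days after infestation; application rate 200 ppm.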

The test system of assay [2] is Myzus persicae. Description: Example B4: activity against Myzus persicae (green peach aphid), intrinsic activity. The settings on record: 120 h, test rate 12 ppm, 5 days after infestation. The method, boiled down: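 Compounds from 10′000 ppm DMSO stocks were mixed into sucrose solution in 24-well plates sealed with Parafilm. Aphid-infested pea seedlings were set on the membrane and the plate inverted so aphids fed through it. Mortality scored 5 days after infestation.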

The test system of assay [3] is Plutella xylostella. Nature of the assay: Example B5: activity against Plutella xylostella (diamond back moth), artificial diet, eggs. The note with it: 192 h, 8 days after infestation, read-out: effect in at least one of the two categories (mortality or growth inhibition). The method, boiled down: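 Artificial diet in 24-well plates was treated with aqueous dilutions of DMSO stocks, dried, then infested with Plutella eggs. Mortality and growth inhibition were scored against untreated samples 8 days after infestation; application rate 200 ppm.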

Another assay has as its system Spodoptera littoralis. Nature of the assay: Example B6: activity against Spodoptera littoralis (Egyptian cotton leaf worm), cotton leaf discs. The note with it: foliar; for percent control (mortality, anti-feedant effect or growth inhibition) at 200 ppm: 72 h, L1 larvae, 3 days after infestation, read-out: control (at least one of mortality, anti-feedant effect, growth inhibition). An outline of the steps: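 Five L1 larvae per sprayed, dried cotton leaf disc on agar. Activity is counted when mortality, anti-feedant effect or growth inhibition exceeds the untreated sample at day 3.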

The subject of assay [4] is Myzus persicae. Description: Example B7a: Myzus persicae feeding/contact activity, sunflower leaf discs. The settings on record: foliar, 144 h, mixed ages, 6 days after infestation. How it is done:
Sunflower leaf discs were placed onto agar in a 24-well microtiter plate and sprayed with aqueous test solutions prepared from 10′000 ppm DMSO stock solutions. After drying, the leaf discs were infested with an aphid population of mixed ages. The samples were assessed for mortality 6 days after infestation.

The next assay concerns Pseudoplusia includens. Description: Example B9: Pseudoplusia includens (soybean looper), larvicide, feeding/contact, soybean plants. The note with it: Chrysodeixis includens; for percent effect (mortality or growth inhibition) at 50 ppm: 120 h, L2 larvae, 5 days after infestation, read-out: effect in at least one of the two categories (mortality or growth inhibition). An outline of the steps:
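Soybean plants sprayed, cut and held in dishes on wet filter paper; infested 1 d after application with 5 L2 larvae. Mortality and growth inhibition assessed 5 days after infestation; tested at 50 ppm.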

In assay [5] the test system is Carpocapsa (Cydia) pomonella. Nature of the assay: Example B10: Carpocapsa (Cydia) pomonella (codling moth), larvicide, feeding/contact, diet cubes. The settings on record: 336 h, L1 larvae, 14 days after infestation, read-out: effect in at least one of the two categories (mortality or growth inhibition). How it is done: Diet cubes coated with paraffin were sprayed with diluted test solutions in an application chamber. After drying off the treated cubes (10 replicates) were infested with 1 L1 larvae. Samples were incubated at 26-27° C. and checked 14 days after infestation for mortality and growth inhibition. The following compounds gave an effect of at least 80% in at least one of the two categories (mortality or growth inhibition) at an application rate of 50 ppm: […]

Assay [6] deals with Diabrotica balteata. Description: B14a: Diabrotica balteata (corn root worm), larvicide, feeding/contact, corn seedlings. The source says: (§1) Activity of compounds P5, P17 and P21 according to the preparatory examples and of a compound from WO 21/083936 against Spodoptera littoralis (Example B6 above), Chilo suppressalis (Example B1 above), Diabrotica balteata (Example B14a below), Plutella xylostella (Example B14b below) and Pseudoplusia includens (Example B9 above) is summarized in Table B14. B14a: Diabrotica balteata (Corn root worm). Larvicide, feeding/contact 3 Corn seedlings were placed on wetted filter paper in plastic cups, and 3 ml of diluted test solutions were pipetted onto them. The cups were infested with 10 L2 larvae and checked for mortality and growth regulation 5 days after treatment. B14b: Plutella xylostella (Diamond back moth). Larvicide L3, feeding/contact Chinese cabbage plants were sprayed with diluted test solutions in an application chamber. Cut off leaves were placed into petri dishes with wetted filter paper and infested 1 day after application with 10 L3 larvae. Samples were assessed 4 days after infestation for mortality and growth regulation.

Assay [7] relates to Plutella xylostella. Description: B14b: Plutella xylostella (diamond back moth), larvicide L3, feeding/contact, Chinese cabbage.
Description: as §1

The next assay has as its system Tetranychus urticae. Nature of the assay: Example B8: activity against Tetranychus urticae (two-spotted spider mite), bean leaf discs. The note with it: foliar, 192 h, mixed population (mobile stages), 8 days after infestation. The procedure:
Bean leaf discs on agar in 24-well microtiter plates were sprayed with aqueous test solutions prepared from 10′000 ppm DMSO stock solutions. After drying the leaf discs were infested with a mite population of mixed ages. The samples were assessed for mortality on mixed population (mobile stages) 8 days after infestation.

Assay [8] relates to Myzus persicae. Description: Example B7b: Myzus persicae feeding/contact activity, eggplant leaf discs. The settings on record: foliar, 144 h, mixed ages, 6 days after infestation. How it is done: Eggplant leaf discs were placed onto agar in a 24-well microtiter plate and sprayed with aqueous test solutions prepared from 10′000 ppm DMSO stock solutions. After drying, the leaf discs were infested with an aphid population of mixed ages. The samples were assessed for mortality 6 days after infestation.

Turning to `CNC(=O)c1cc(-n2ncnc2[C@H](C)N(C)c2ncnc3c(C(F)(F)F)cc(Cl)cc23)ncn1` [Compound P9, 6-[5-[(1S)-1-[[6-chloro-8-(trifluoromethyl)quinazolin-4-yl]-methyl-amino]ethyl]-1,2,4-triazol-1-yl]-N-methyl-pyrimidine-4-carboxamide], the percent control (mortality, anti-feedant effect or growth inhibition) at 200 ppm in the assay with Chilo suppressalis and with Spodoptera littoralis was not below 80% in each case. In addition, the percent effect (mortality or growth inhibition) at 200 ppm with Diabrotica balteata [1], with Euschistus heros and in the assay on Plutella xylostella [3] was not below 80% throughout. This compound displayed a mortality at 12 ppm in the assay with Myzus persicae [2] not below 80%. The same compound yielded a mortality at 200 ppm in the assay on Myzus persicae [4] not below 80%. Further, the percent effect (mortality or growth inhibition) at 50 ppm (with Pseudoplusia includens; in assay [5]) was not below 80% in each case.
As to `C[C@H](Nc1ncnc2c(Cl)cc(I)cc12)c1ncnn1-c1cc(C(N)=O)ncn1` [Compound P2, 6-[5-[(1S)-1-[(8-chloro-6-iodo-quinazolin-4-yl)amino]ethyl]-1,2,4-triazol-1-yl]pyrimidine-4-carboxamide], the percent control (mortality, anti-feedant effect or growth inhibition) at 200 ppm with Chilo suppressalis and with Spodoptera littoralis was not below 80% each time. Moreover, the percent effect (mortality or growth inhibition) at 200 ppm with Diabrotica balteata [1] and with Plutella xylostella [3] was not below 80% throughout. Also, the mortality at 12 ppm in the assay with Myzus persicae [2] was not below 80%. This compound showed a mortality at 200 ppm with Myzus persicae [4] not below 80%. Besides, the percent effect (mortality or growth inhibition) at 50 ppm (in the assay on Pseudoplusia includens; in [5]) was not below 80% in each case.
For `C[C@H](Nc1ncnc2c(C(F)(F)F)cc(Cl)cc12)c1ncnn1-c1cc(C(N)=O)ncn1` [Compound P5, 6-[5-[(1S)-1-[[6-chloro-8-(trifluoromethyl)quinazolin-4-yl]amino]ethyl]-1,2,4-triazol-1-yl]pyrimidine-4-carboxamide], the results for the mortality at 3.12 ppm in the assay on Chilo suppressalis and in the assay on Spodoptera littoralis were 80% and 100%, respectively. Moreover, the percent control (mortality, anti-feedant effect or growth inhibition) at 200 ppm in the assay on Chilo suppressalis and in the assay with Spodoptera littoralis was not below 80% in each case. Also, the percent effect (mortality or growth inhibition) at 200 ppm with Diabrotica balteata [1], with Euschistus heros and in the assay with Plutella xylostella [3] was not below 80% each time. Further, the mortality at 200 ppm in the assay on Euschistus heros worked out at 100%. For the same compound, the mortality at 12 ppm with Myzus persicae [2] was not below 80%. Also, the percent effect (mortality or growth inhibition) at 50 ppm in the assay with Pseudoplusia includens was not below 80%. Further, the mortality at 0.8 ppm with Pseudoplusia includens (Pseudoplusia includens, 0.8 ppm) turned out to be 70%; in the assay on Diabrotica balteata [6], 100%; in the assay with Plutella xylostella [7] (0.8 ppm) it was 95%. Also, the mortality at 12.5 ppm with Pseudoplusia includens (Pseudoplusia includens) was 100%. In the assay with Plutella xylostella [7], this compound gave a mortality at 3 ppm of 100%.
For `CNC(=O)c1cc(-n2ncnc2[C@H](C)Nc2ncnc3c(I)cc(Cl)cc23)ncn1` [Compound P14, 6-[5-[(1S)-1-[(6-chloro-8-iodo-quinazolin-4-yl)amino]ethyl]-1,2,4-triazol-1-yl]-N-methyl-pyrimidine-4-carboxamide], the percent control (mortality, anti-feedant effect or growth inhibition) at 200 ppm in the assay with Chilo suppressalis and with Spodoptera littoralis was not below 80% each time. Besides, the percent effect (mortality or growth inhibition) at 200 ppm in the assay with Diabrotica balteata [1] and with Plutella xylostella [3] was not below 80% throughout. Also, in the assay with Myzus persicae [2], the mortality at 12 ppm was not below 80%. In addition, in the assay on Myzus persicae [4], the mortality at 200 ppm is not below 80%. The percent effect (mortality or growth inhibition) at 50 ppm in the assay with Pseudoplusia includens is not below 80%.
`C[C@H](Nc1ncnc2c(C(F)(F)F)cc(Cl)cc12)c1ncnn1-c1cnc(C(=O)NCC#N)cn1` [Compound P71]: the percent control (mortality, anti-feedant effect or growth inhibition) at 200 ppm in the assay on Chilo suppressalis and in the assay on Spodoptera littoralis was not below 80% each time. The percent effect (mortality or growth inhibition) at 200 ppm in the assay on Diabrotica balteata [1] and with Plutella xylostella [3] was not below 80% each time. The mortality at 12 ppm in the assay on Myzus persicae [2] is not below 80%. The compound further gave a mortality at 200 ppm in the assay on Tetranychus urticae not below 80%.
Turning to `C[C@H](Nc1ncnc2c(C(F)(F)F)cc(C(F)(F)F)cc12)c1ncnn1-c1ccc(C(N)=O)cn1` [WO 21/083936 P.157, reference compound], the mortality at 3.12 ppm in the assay with Chilo suppressalis and in the assay with Spodoptera littoralis was 0% in each case. In the assay with Pseudoplusia includens (Pseudoplusia includens), this compound gave a mortality at 12.5 ppm of 10%. This compound also displayed a mortality at 0.8 ppm in the assay on Diabrotica balteata [6] of 35%. The same compound yielded a mortality at 3 ppm in the assay on Plutella xylostella [7] of 65%.
For the compound `C[C@@H](c1ncnn1-c1cc(C(N)=O)ncn1)N(C)c1ncnc2c(C(F)(F)F)cc(Cl)cc12` [Compound P50, 6-[5-[(1S)-1-[[6-chloro-8-(trifluoromethyl)quinazolin-4-yl]-methyl-amino]ethyl]-1,2,4-triazol-1-yl]pyrimidine-4-carboxamide], the percent control (mortality, anti-feedant effect or growth inhibition) at 200 ppm in the assay with Chilo suppressalis and with Spodoptera littoralis was not below 80% in each case. Also, the percent effect (mortality or growth inhibition) at 200 ppm in the assay with Diabrotica balteata [1], in the assay with Euschistus heros and in the assay with Plutella xylostella [3] was not below 80% in each case. For the same compound, in the assay with Myzus persicae [2], the mortality at 12 ppm is not below 80%. Further, the mortality at 200 ppm in the assay with Myzus persicae [8] and with Tetranychus urticae was not below 80% throughout. Also, the percent effect (mortality or growth inhibition) at 50 ppm in the assay on Pseudoplusia includens is not below 80%.
On to `C[C@H](Nc1ncnc2c(I)cc(Cl)cc12)c1ncnn1-c1ncc(C(N)=O)s1` [Compound P29, 2-[5-[(1S)-1-[(6-chloro-8-iodo-quinazolin-4-yl)amino]ethyl]-1,2,4-triazol-1-yl]thiazole-5-carboxamide], for which the percent control (mortality, anti-feedant effect or growth inhibition) at 200 ppm in the assay on Chilo suppressalis and in the assay on Spodoptera littoralis was not below 80% in each case. For the same compound, the percent effect (mortality or growth inhibition) at 200 ppm in the assay on Diabrotica balteata [1] and in the assay with Plutella xylostella [3] was not below 80% each time. Moreover, in the assay with Myzus persicae [2], the mortality at 12 ppm was not below 80%. In the assay with Myzus persicae [4], this compound had a mortality at 200 ppm not below 80%.
Consider `C[C@H](Nc1ncnc2c(I)cc(Cl)cc12)c1ncnn1-c1cc(C(N)=O)ncn1` [Compound P13, 6-[5-[(1S)-1-[(6-chloro-8-iodo-quinazolin-4-yl)amino]ethyl]-1,2,4-triazol-1-yl]pyrimidine-4-carboxamide], for which the percent control (mortality, anti-feedant effect or growth inhibition) at 200 ppm with Chilo suppressalis and with Spodoptera littoralis was not below 80% throughout. The percent effect (mortality or growth inhibition) at 200 ppm with Diabrotica balteata [1] and with Plutella xylostella [3] was not below 80% in each case. The compound further returned a mortality at 12 ppm in the assay on Myzus persicae [2] not below 80%. The mortality at 200 ppm in the assay on Myzus persicae [4] and in the assay on Tetranychus urticae was not below 80% in each case. The percent effect (mortality or growth inhibition) at 50 ppm (in the assay with Pseudoplusia includens; in [5]) was not below 80% each time.

The record behind these values is patent US20260132125A1, “PESTICIDALLY ACTIVE FUSED BICYCLIC HETEROAROMATIC COMPOUNDS” (priority 2022, published 2026).
